The values below come from patent EP2119770B1, “Production of alpha-oxyfunctionalized carbonyl compounds” (priority 2008, dated 2009).

Structures are written as SMILES.

Common to all, as to assay type: biochemical
One assay has as its target T1, Gox0646 (Gluconobacter oxydans, UniProt Q5FT73).
T1 sequence (Q5FT73 1-264): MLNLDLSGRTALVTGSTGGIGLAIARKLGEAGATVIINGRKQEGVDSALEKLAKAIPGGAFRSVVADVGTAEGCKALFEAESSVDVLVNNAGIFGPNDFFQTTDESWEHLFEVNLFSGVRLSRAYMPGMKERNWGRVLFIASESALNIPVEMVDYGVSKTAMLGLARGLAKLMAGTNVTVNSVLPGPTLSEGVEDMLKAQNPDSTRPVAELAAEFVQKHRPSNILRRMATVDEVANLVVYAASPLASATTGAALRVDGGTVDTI
Briefly: Enzyme activity assay (rate of NAD(P)H decrease at 340 nm), Gox0646. The following applies: 10 mM substrate; for Specific Activities: Tab. 9, GOX0646, cofactor NADPH, pH 7.0, 30 °C. On the procedure:
(§1) Measurment of enzyme activity: NADPH-dependent alpha-ketocarbonyl reductases were assayed by a routine method used for NAD(P)-linked enzymes by recording the rate of decrease of NADPH at 340 nm (ε = 6.22 mM^-1 x cm^-1)) with substrates at 30 °C. The reaction mixture (1 ml) for reduction of alpha-ketocarbonyl substrates contained 10 mM substrate, 40 mM potassium phosphate buffer pH 7.0, 0.025 mM NAD(P)H , and the enzyme. Reactions were induced by addition of enzyme or substrate. One unit of enzyme activity was defined as the amount of enzyme catalyzing the conversion of 1 µmol of pyridine nucleotide per min at 30 °C.
(§2) NADPH-dependent α-ketocarbonyl reductases were assayed by a routine method used for NAD(P)-linked enzymes by recording the rate of decrease of NADPH at 340 nm (ε = 6.22 mM^-1.cm^-1) with substrates at 30 °C. The reaction mixture (1 ml) for reduction of alpha-ketocarbonyl substrates contained 10 mM substrate, 40 mM potassium phosphate buffer pH 7.0, 0.025 mM NADPH , and the enzyme. Reactions were induced by addition of enzyme or substrate. One unit of enzyme activity was defined as the amount of enzyme catalyzing the conversion of 1 µmol of pyridine nucleotide per min at 30 °C.
(§3) For each enzyme (Gox0313, Gox0502, Gox0644, Gox0646, Gox1615, Gox2107, and Gox2684 respectively), fresh enzyme preparations were used to validate the substrate spectrum and the kinetic activity. […] Purified NAD(P)-dependent oxidoreductases were assayed at 30 °C by a routine method used for NAD(P)-linked enzymes by recording the rate of decrease of NAD(P)H at 340 nm (ε = […]) with substrates capable of reduction reactions. The standard reaction mixture (1 ml) for the reduction reactions of substrates contained 10 mM substrate, 40 mM potassium phosphate buffer (K-phosphate buffer) pH 7.0, 0.05 mM NAD(P)H, and the enzyme unless otherwise noted. Reactions were induced by addition of enzyme or substrate. One unit of enzyme activity was defined as the amount of enzyme catalyzing the conversion of 1 µmol of pyridine nucleotide per min at 30 °C. Measurement of the protein content was performed by the method of Bradford in Anal. Biochem. 72:248-254 (1976). Table 3: Summary of enzymatic activities with α-diketones, α-ketoaldehydes and /or α-ketoesters

In the next assay the target is T2, Gox2684 (Gluconobacter oxydans, UniProt Q5HXK5).
T2 sequence (Q5HXK5 1-357): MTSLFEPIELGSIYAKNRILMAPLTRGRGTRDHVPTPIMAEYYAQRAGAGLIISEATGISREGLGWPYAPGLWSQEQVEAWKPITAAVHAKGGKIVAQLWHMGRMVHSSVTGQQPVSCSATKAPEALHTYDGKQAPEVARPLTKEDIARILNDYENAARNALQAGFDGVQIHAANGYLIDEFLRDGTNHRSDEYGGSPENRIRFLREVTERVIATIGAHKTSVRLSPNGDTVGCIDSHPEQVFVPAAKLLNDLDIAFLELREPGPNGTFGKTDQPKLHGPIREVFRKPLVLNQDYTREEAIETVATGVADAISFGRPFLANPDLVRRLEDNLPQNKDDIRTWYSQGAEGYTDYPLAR
Put plainly: Enzyme activity assay (rate of NAD(P)H decrease at 340 nm), Gox2684. Particulars: Tab. 8, GOX2684; cofactor NADPH; 10 mM substrate, pH 7.0, 30 °C. As for the experimental part: as §1, §2, §3

The target of another assay is Gox2107 (Gluconobacter oxydans, UniProt Q5FP53). Briefly: Enzyme activity assay (rate of NAD(P)H decrease at 340 nm), Gox2107. Particulars: for Specific Activity: Tab. 7, Gox2107, cofactor NADPH, 10 mM substrate, pH 7.0, 30 °C. On the procedure: as §1, §2, §3
A further assay concerns the target T3, Gox0502 (Gluconobacter oxydans, UniProt Q5FTL6).
T3 sequence (Q5FTL6 1-361): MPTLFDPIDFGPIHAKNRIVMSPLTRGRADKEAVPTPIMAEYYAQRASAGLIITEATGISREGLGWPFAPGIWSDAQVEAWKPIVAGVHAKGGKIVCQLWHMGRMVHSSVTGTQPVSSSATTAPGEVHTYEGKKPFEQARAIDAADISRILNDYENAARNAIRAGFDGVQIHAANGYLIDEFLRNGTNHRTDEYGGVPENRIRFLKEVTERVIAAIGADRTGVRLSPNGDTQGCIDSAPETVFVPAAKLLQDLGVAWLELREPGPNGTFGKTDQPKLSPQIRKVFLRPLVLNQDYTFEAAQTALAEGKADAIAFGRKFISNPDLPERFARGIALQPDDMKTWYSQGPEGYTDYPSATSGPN
Briefly: Enzyme activity assay (rate of NAD(P)H decrease at 340 nm), Gox0502. More on the design: Strep-tag II (N); made in house; host or cells: E. coli BL21 or E. coli DH5α (pASK-IBA5). Particulars: 10 mM substrate; for Specific Activity: Tab. 7, Gox0502, cofactor NADPH, pH 7.0, 30 °C. As for the experimental part: as §1, §2, §3

The next assay concerns the target Gox0644 (Gluconobacter oxydans, UniProt Q5FT75). Put plainly: Enzyme activity assay (rate of NAD(P)H decrease at 340 nm), Gox0644. The following applies: 10 mM substrate; for Specific Activity: Tab. 4, Gox0644, cofactor NADPH, pH 7.0, 30 °C. As for the experimental part:
(§4) Reactions were induced by addition of enzyme or substrate. One unit of enzyme activity was defined as the amount of enzyme catalyzing the conversion of 1 µmol of pyridine nucleotide per min at 30 °C.
as §4
For each enzyme (Gox0313, Gox0502, Gox0644, Gox0646, Gox1615, Gox2107, and Gox2684 respectively), fresh enzyme preparations were used to validate the substrate spectrum and the kinetic activity. […] Reactions were induced by addition of enzyme or substrate. One unit of enzyme activity was defined as the amount of enzyme catalyzing the conversion of 1 µmol of pyridine nucleotide per min at 30 °C. […] Table 3: Summary of enzymatic activities with α-diketones, α-ketoaldehydes and /or α-ketoesters

In a further assay the target is T4, Gox0313 (Gluconobacter oxydans, UniProt Q5FU50).
T4 sequence (Q5FU50 1-343): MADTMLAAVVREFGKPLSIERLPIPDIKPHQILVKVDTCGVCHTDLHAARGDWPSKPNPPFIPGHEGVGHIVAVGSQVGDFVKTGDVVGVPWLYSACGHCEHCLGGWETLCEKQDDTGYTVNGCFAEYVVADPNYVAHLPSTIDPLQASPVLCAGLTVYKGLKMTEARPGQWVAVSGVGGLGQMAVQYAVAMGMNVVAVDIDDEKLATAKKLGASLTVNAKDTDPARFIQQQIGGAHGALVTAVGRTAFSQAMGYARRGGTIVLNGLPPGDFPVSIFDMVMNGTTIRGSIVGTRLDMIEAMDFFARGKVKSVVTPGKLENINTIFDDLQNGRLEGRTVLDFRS
Put plainly: Enzyme activity assay (rate of NAD(P)H decrease at 340 nm), Gox0313. The following applies: 10 mM substrate; for Specific Activity: Tab. 6, Gox0313, substrate reduction, cofactor NADH, pH 7.0, 30 °C. On the procedure: as §1, §2, §3

For another assay, the target named is T5, Gox1615 (Gluconobacter oxydans, UniProt Q5FQJ0).
T5 sequence (Q5FQJ0 1-332): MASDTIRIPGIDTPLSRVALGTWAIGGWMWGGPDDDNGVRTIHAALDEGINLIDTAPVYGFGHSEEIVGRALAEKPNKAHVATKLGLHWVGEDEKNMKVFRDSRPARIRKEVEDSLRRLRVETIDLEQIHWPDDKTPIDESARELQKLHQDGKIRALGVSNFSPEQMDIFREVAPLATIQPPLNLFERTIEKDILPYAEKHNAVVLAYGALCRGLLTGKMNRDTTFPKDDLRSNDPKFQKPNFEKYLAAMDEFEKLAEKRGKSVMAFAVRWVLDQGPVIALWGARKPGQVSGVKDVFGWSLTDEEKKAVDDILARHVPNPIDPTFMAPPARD
Put plainly: Enzyme activity assay (rate of NAD(P)H decrease at 340 nm), Gox1615. The following applies: 10 mM substrate; for Specific Activity: Tab. 5, Gox1615, cofactor NADPH, pH 7.0, 30 °C. On the procedure:
as §1, §2, §3

In the case of `O=C1C=CC(=O)c2ccccc21` [1,4-naphthoquinone], the “Specific Activities” value at Gox0646 was determined as 0.2 U/mg; at Gox2684 it was 3.4 U/mg. For the same molecule, on Gox2107 (Gox2107, reduction with NADPH), the activities amounted to 217.4 µmol/mg/min. Also, the “Specific Activity” value on Gox2107 amounted to 217.5 U/mg; on Gox0502, 16.6 U/mg.

In the case of `C=CC(=O)CC` [1-pentene-3-one], the “Specific Activity” value on Gox2107 is on record as 14.0 U/mg; at Gox0502, 6.1 U/mg.

As to `CC(=O)C(=O)c1ccccc1` [1-phenyl-1,2-propanedione], the “Specific Activity” value at Gox0644 is listed as 75.4 U/mg; at Gox2107, less than 0.1 U/mg; on Gox0313, 0.2 U/mg; on Gox1615, 5.4 U/mg; on Gox0502, 2,0 U/mg. The Activity turned out to be 75.4 U/mg at Gox0644 (Table 3, Gox0644, K-phosphate buffer pH 7.0, 0.05 mM NAD(P)H, 30 °C); 6.0 U/mg at Gox0646 (Table 3, Gox0646, K-phosphate buffer pH 7.0, 0.05 mM NAD(P)H, 30 °C); 0.2 U/mg at Gox0313 (Table 3, Gox0313, K-phosphate buffer pH 7.0, 0.05 mM NAD(P)H, 30 °C); 5.4 U/mg on Gox1615 (Table 3, Gox1615, K-phosphate buffer pH 7.0, 0.05 mM NAD(P)H, 30 °C); 2.0 U/mg at Gox0502 (Table 3, Gox0502, K-phosphate buffer pH 7.0, 0.05 mM NAD(P)H, 30 °C). Also, the “Specific Activities” value at Gox0646 was found to be 6.0 U/mg.

For `CC(=O)C(C)=O` [2,3-butanedione], the “Specific Activity” value is 60.0 U/mg at Gox0644; less than 0.1 U/mg at Gox2107; 28.5 U/mg at Gox0313; 6 U/mg on Gox1615; 0.5 U/mg on Gox0502. Moreover, the “Specific Activities” value on Gox0646 was 0.8 U/mg; on Gox2684, 0.5 U/mg.

For the molecule `O=C1C=CCCC1` [2-cyclohexene-1-one], the “Specific Activity” value on Gox2107 is 3.3 U/mg; at Gox0502, 9.8 U/mg.

Consider `O=C1C=C(O)C(=O)c2ccccc21` [2-hydroxy-1,4-naphthoquinone], for which the “Specific Activities” value at Gox2684 is 0.7 U/mg. The “Specific Activity” value is 16.04 U/mg at Gox2107 and 0.75 U/mg at Gox0502.

On to `CC1=CC(=O)c2ccccc2C1=O` [2-methyl-1,4-naphthoquinone], for which the “Specific Activities” value at Gox2684 was determined as 6.8 U/mg. Besides, the “Specific Activity” value came to 124.1 U/mg on Gox2107 and 10 U/mg at Gox0502.

As to `CC=CC(C)=O` [3-penten-2-one], the “Specific Activities” value on Gox2684 stood at 1.9 U/mg. The “Specific Activity” value on Gox2107 is recorded as 1.9 U/mg; on Gox0313, 1.5 U/mg; on Gox1615, 0.5 U/mg; on Gox0502, 3.6 U/mg.

`C=C(C)[C@H]1CC=C(C)C(=O)C1` [(+)-Carvone]: the “Specific Activity” value is listed as less than 0.1 U/mg at Gox2107 and 8.0 U/mg on Gox0502.

Turning to `N#CC1=C(C#N)C(=O)C(Cl)=C(Cl)C1=O` [DDQ], the “Specific Activity” value is given as 26.5 U/mg on Gox2107 and less than 0.1 U/mg on Gox0502.

As for `O=C1Nc2ccccc2C1=O` [Isatin], the “Specific Activity” value worked out at 16.1 U/mg at Gox0644 and 2.4 U/mg on Gox1615. For the same molecule, at Gox0646, the “Specific Activities” value is on record as 0.1 U/mg.

As to `O=CC=Cc1ccccc1` [cinnamaldehyde], the “Specific Activities” value at Gox2684 stood at 0.4 U/mg. The “Specific Activity” value at Gox0313 is 7.0 U/mg.

For `O=CCCc1ccccc1` [hydrocinnamaldehyde], the “Specific Activities” value on Gox2684 was 1.9 U/mg. The “Specific Activity” value at Gox0313 was 32.1 U/mg.

Take `O=C1C=CC(=O)C=C1` [p-benzoquinone]: the “Specific Activities” value at Gox0646 is recorded as 0.3 U/mg. The figures for the “Specific Activity” value at Gox2107 and at Gox0502 were 180.5 U/mg and 10 U/mg, respectively.
